# Reference: US20260034158A1, “METHODS OF TREATING CANCER OF THE CENTRAL NERVOUS SYSTEM COMPRISING 5-ETHYNYL-2'-DEOXYURIDINE” (The University of North Carolina at Chapel Hill, priority 2022, published 2026)
# Assays:
# [1] = system: nucleotide excision repair in HeLa cells; assay: In vivo excision assay with TFIIH antibody immunoprecipitation; format: cell-based, human; conditions: for substrate for excision repair: when incorporated into the DNA of replicating cells, summary statement
# Protocol: (§1) UV Irradiation and Thymidine analog treatment: HeLa cells were grown to ˜80% confluence, culture medium was removed, cells were washed twice with PBS, and then were placed under a GE germicidal lamp emitting primarily 254-nm UV light (1 J/m^2/sec) connected with a digital timer for 20sec (20 J/m^2 in total). Cells were collected after 1 hour repair. Thymidine analogs were dissolved in sterile PBS (BrdU, EdU, CldU) or DMSO (IdU, F-ara-EdU, AmdU), and then added to cell culture medium at final concentration of 10 μM for indicated times.
# (§2) In vivo excision assay: For in vivo excision assay with BrdU antibody, low molecular DNAs isolated by Hirt procedure as previously described (ref 17) were subject to immunoprecipitation with anti-BrdU antibody. For in vivo excision assay with TFIIH antibody, cells were lysed in buffer A (25 mM HEPES at pH7.9, 100 mM KCl, 12 mM MgCl2, 0.5 mM EDTA, 2 mM DTT, 12.5% glycerol, 0.5% NP-40), and excised oligonucleotides complexed with TFIIH protein were immunoprecipitated with TFIIH antibody. Purified oligonucleotides from BrdU IP or TFIIH IP were 3′ end-labeled by terminal deoxynucleotidyl transferase (TdT), α-^32P-ATP with a standard 50 mer oligonucleotide as spike internal control. After phenol-chloroform extraction and ethanol precipitation, labeled DNAs were fractionated with 12% denaturing sequencing gels.
# [2] = system: nucleotide excision repair in HeLa cells; assay: In vivo excision assay with anti-BrdU antibody immunoprecipitation; format: cell-based, human; conditions: for excised oligomers (nominal 26-mer) precipitated by anti-BrdU antibodies: 10 μM thymidine analog, 24 h, no UV
# Protocol: as §1, §2
# [3] = system: HeLa cells; assay: Slot blot assay of thymidine analog incorporation into genomic DNA; format: cell-based, human; conditions: 10 μM thymidine analog, 24 h, anti-BrdU antibody
# Protocol: Slot blot assay: HeLa cells were plated in 100 mm plates and treated with 10 μM thymidine analogs for 24 h. Genomic DNA was purified from cell pellets using QIAamp DNA mini kit (Qiagen, 51306). DNA concentrations were determined using a Qubit 3.0 fluorometer. 250 ng of each DNA was diluted with TE buffer (10 mM Tris-HCl pH8, 1 mM EDTA) to a total volume of 250 μL, then boiled at 90° C. for 10 min and cooled in ice water immediately. 250 μL cold ammonium acetate (2 M) was added to neutralize DNA, and then DNA samples were loaded onto nitrocellulose membranes using a slot blot apparatus. Membranes were transferred to a vacuum oven and baked for 1.5 h at 80° C., then blocked with 5% dried milk and incubated with either anti-BrdU antibody (1:1000) or anti-ssDNA antibody (1:5000) as loading control overnight at 4° C. After incubating with a horseradish peroxidase (HRP) labeled secondary antibody (1:10000) for 1 h, chemiluminescent signal was captured using a Bio-Rad ChemiDoc XRS imaging device.
# [4] = system: primary human glioblastoma cell; conditions: same dose as Temozolomide; cited from earlier work
# [5] = molecular target: Taq DNA polymerase (Thermus aquaticus, UniProt P19821); assay: PCR of EdU-substituted genomic DNA with Taq DNA polymerase; format: biochemical; conditions: genomic DNA of cells treated with EdU for 24 hrs, CSA gene (946bp), 30 cycles
# [6] = system: XPA-/-XPC-/-CSB-/- NHF1 cells; assay: In vivo excision assay (anti-BrdU IP) in excision repair defective NHF1 cells; format: cell-based, human; conditions: XPA-/-XPC-/-CSB-/- mutant NHF1, 10 μM EdU, 24 h
# Source text: (§3) Cell lines: NHF1 cells, telomerase-immortalized normal human fibroblast monolayers were obtained as described previously (ref 17), XPA-/-XPC-/-CSB-/- triple knock out NHF1 cells were generated using CRISPR Cas9 system with gRNAs (XPA: […] (SEQ ID NO:1); CSB: […] (SEQ ID NO:2); XPC: […] (SEQ ID NO:3)). The HeLa cell line was from the American Type Culture Collection (ATCC). NHF1 and HeLa cells were maintained in Dulbecco's modified Eagle's medium (DMEM) supplemented with 10% fetal bovine serum at 37° C. in a 5% CO2 humidified chamber.
# as §2
# [7] = system: HeLa cells; assay: XR-seq of EdU excision products; format: cell-based, human; conditions: for TS/NTS ratio genome-wide: RNA Pol II transcribed genes
# [8] = system: an osteosarcoma and a glioblastoma cell line; conditions: cited from earlier work
# [9] = in vivo; cited from earlier work
# [10] = system: NHF1 wild-type cells; assay: In vivo excision assay (anti-BrdU IP) in wild-type NHF1 cells; format: cell-based, human; conditions: wild type NHF1, 10 μM EdU, 24 h
# Source text: as §3, §2
# [11] = compared with other thymidine analogs used to study replication; cited from earlier work
# [12] = system: Chinese hamster ovary (CHO) AA8 cell free extract excision nuclease; assay: In vitro excision assay with mammalian cell-free extract; format: biochemical; conditions: 140bp duplex substrates, CHO AA8 CFE, three biological replicates
# Protocol: In vitro excision assay: Radiolabeled 140-bp full length undamaged, (6-4) PP, and EdU damaged substrates were prepared, and in vitro excision assay with cell-free extract from Chinese hamster ovary (CHO) AA8 cells were carried out as previously described (ref 39). Briefly, Chinese hamster ovary (CHO) AA8 cell free extract (CFE) was prepared by the method of Manley (ref 42). Linear double-stranded DNA substrates (140bp in length) were prepared with centrally located (6-4) photoproduct or EdU as described previously (ref 43). The sequence of the centrally located 12-mers was […]; SEQ ID NO:4. For the (6-4) substrate, the (6-4) lesion was between T5 and T6. Single EdU was at T6 and, double EdU lesions were at T5 and T6. Unmodified 12mer and EdU containing 12mers were purchased from Integrated DNA Technologies.
# The excision reaction with AA8 CFE (75 μg) was conducted with 20 fmol of 140bp substrates, 18 mM HEPES-KOH (pH 7.9), 24 mM KCl, 2 mM MgCl2, 4 mM ATP at 30° C. for 60 minutes as described (ref 35). After the excision reaction, the mixture was incubated with 0.34% SDS and 20 µg/ml Proteinase K at 55-60° C. for 15 minutes, then DNA was extracted with phenol:chloroform:isoamyl alcohol and precipitated with ethanol, resuspended in formamide/dye mixture, and separated with a 10% sequencing gel. Quantification of the signal intensities was done by using ImageJ.
# [13] = HeLa cells, 10 μM thymidine analog, 24 h
# Taq DNA polymerase, sequence (P19821 whole entry): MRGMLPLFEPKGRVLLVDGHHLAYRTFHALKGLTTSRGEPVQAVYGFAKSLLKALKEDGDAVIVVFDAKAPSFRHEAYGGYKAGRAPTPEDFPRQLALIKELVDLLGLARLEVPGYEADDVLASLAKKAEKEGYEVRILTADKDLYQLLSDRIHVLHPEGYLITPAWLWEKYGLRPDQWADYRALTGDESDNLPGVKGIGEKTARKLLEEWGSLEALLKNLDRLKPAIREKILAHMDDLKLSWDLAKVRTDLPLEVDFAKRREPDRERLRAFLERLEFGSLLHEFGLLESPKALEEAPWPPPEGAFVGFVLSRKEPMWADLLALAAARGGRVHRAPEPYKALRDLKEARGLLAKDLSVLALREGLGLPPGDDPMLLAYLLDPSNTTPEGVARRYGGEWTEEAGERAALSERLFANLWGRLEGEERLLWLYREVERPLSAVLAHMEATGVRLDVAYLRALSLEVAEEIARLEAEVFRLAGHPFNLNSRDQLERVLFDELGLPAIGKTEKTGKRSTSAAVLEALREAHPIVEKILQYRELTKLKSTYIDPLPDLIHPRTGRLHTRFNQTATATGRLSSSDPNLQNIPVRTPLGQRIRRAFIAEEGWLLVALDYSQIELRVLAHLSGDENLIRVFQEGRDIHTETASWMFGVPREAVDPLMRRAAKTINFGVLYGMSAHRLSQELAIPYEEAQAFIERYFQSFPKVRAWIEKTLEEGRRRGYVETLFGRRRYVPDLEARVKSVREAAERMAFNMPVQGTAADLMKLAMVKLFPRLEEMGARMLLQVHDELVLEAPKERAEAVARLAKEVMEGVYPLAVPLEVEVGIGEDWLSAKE
smiles,measurement,setting,value
"[N-]=[N+]=NCc1cn([C@H]2C[C@H](O)[C@@H](CO)O2)c(=O)[nH]c1=O [AmdU, 5-(azidomethyl)-2′-deoxyuridine]",excised by human nucleotide excision repair (TFIIH IP),[1]; [13],only EdU is excised
same,substrate for excision repair,[1],not to be substrates for excision repair
"O=c1[nH]c(=O)n([C@H]2C[C@H](O)[C@@H](CO)O2)cc1Br [BrdU, 5-Bromo-2′-deoxyuridine]",substrate for excision repair,[1],not to be substrates for excision repair
same,excised oligomers (nominal 26-mer) precipitated by anti-BrdU antibodies,[2],not
same,incorporation into replicating HeLa cells,[3],similarly incorporated
"O=c1[nH]c(=O)n([C@H]2C[C@H](O)[C@@H](CO)O2)cc1Cl [CldU, 5-Chloro-2′-deoxyuridine]",substrate for excision repair,[1],not to be substrates for excision repair
same,excised oligomers (nominal 26-mer) precipitated by anti-BrdU antibodies,[2],not
same,incorporation into replicating HeLa cells,[3],similarly incorporated
"C#Cc1cn([C@H]2C[C@H](O)[C@@H](CO)O2)c(=O)[nH]c1=O [EdU, 5-Ethynyl-2′-deoxyuridine]",apoptosis relative to Temozolomide,[4],3-5 fold
same,strand breaks relative to Temozolomide,[4],3-5 fold
same,PCR product from EdU-substituted genomic DNA template,[5],produced full-size fragments
same,length of excision products isolated with anti-TFIIH antibodies,[1]; [13],25-32 nucleotide
same,substrate for excision repair,[1],substrate for excision repair
same,time of peak level of excised EdU-containing fragments,[2]; 10 μM EdU for 3 to 48 hrs,24 h
same,length of excised oligonucleotides under yellow light and ordinary room light,"[2]; 10 μM EdU, 24 hours, both light conditions",22-30 nts
same,excised oligomers (nominal 26-mer) precipitated by anti-BrdU antibodies,[2],precipitated oligomers in the form of nominal 26-mer
same,time that EdU removal continues after pulse labeling,"[2]; 4 hours EdU, then EdU-free medium, up to 12 hrs",at least 12 hrs
same,excision product,[6],no excision product
same,"XR-seq reads over active promoter, weak promoter, strong enhancer and transcription transition region","[7]; 15 ChromHMM chromatin states, 6 h to 48 h",relatively high
same,TS/NTS ratio genome-wide,[7]; 6 h EdU treatment,~2.5
same,TS/NTS ratio genome-wide,[7]; 48 h EdU treatment,~1.2
same,time at which TS/NTS repair ratio peaks,"[7]; HACD3, DHFR, and MSH3 genes",6 h
same,peak of length distribution of excision products,"[7]; anti-TFIIH IP, XR-seq",25-27 nucleotides
same,repair of EdU at DNase hypersensitivity peaks,[7]; gene and intergenic regions,significantly enriched
same,incorporation into replicating HeLa cells,[3],similarly incorporated
same,suppressing cell proliferation compared with BrdU,[8],outperform BrdU
same,crossing of the blood-brain-barrier,[9],crosses the blood-brain-barrier
same,excision product,[10],excision product seen
same,toxicity,[11],highly toxic
same,in vitro excision (percentage of excision relative to total amount of substrate),[12],efficient substrate for the mammalian excision nucleases
"C#Cc1cn([C@@H]2O[C@H](CO)[C@@H](O)[C@@H]2F)c(=O)[nH]c1=O [F-ara-EdU, (2′S)-2-Deoxy-2-fluoro-5-ethynyluridine]",excised by human nucleotide excision repair (TFIIH IP),[1]; [13],only EdU is excised
same,substrate for excision repair,[1],not to be substrates for excision repair
"O=c1[nH]c(=O)n([C@H]2C[C@H](O)[C@@H](CO)O2)cc1I [IdU, 5-Iodo-2′-deoxyuridine]",substrate for excision repair,[1],not to be substrates for excision repair
same,excised oligomers (nominal 26-mer) precipitated by anti-BrdU antibodies,[2],not
same,incorporation into replicating HeLa cells,[3],similarly incorporated
